Data published in ChEMBL document CHEMBL5375988, “AcGlcAs: A Novel P53-Targeting Arsenical with Potent Cellular Uptake and Cancer Cell Selectivity” (J Med Chem, 2023).
Calls of active or inactive are those of the source. No cut-off for these calls is given here.

Assays:
[1] = test system: NB-4; assay: Induction of apoptosis in human NB4 cells assessed as late apoptotic cells at 9 uM preincubated for 1 hrs followed by replacement with fresh culture medium and measured after 24 hrs by Annexin V-FITC/7AAD staining based flow cytometry assay (reference value: 3.71%); assay type: functional
[2] = test system: NB-4; assay: Induction of apoptosis in human NB4 cells assessed as viable cells at 3 uM preincubated for 1 hrs followed by replacement with fresh culture medium and measured after 24 hrs by Annexin V-FITC/7AAD staining based flow cytometry assay (reference value: 94%); assay type: functional; settings: read-out: Activity
[3] = test system: Cellular tumor antigen p53 (Homo sapiens), P04637 [V272M]; assay: Thermostabilization of recombinant p53 V272M mutant (unknown origin) […] assessed as increase in melting temperature at 1:15 ratio in HEPES at pH 7.5 by DSF analysis
[4] = test system: Cellular tumor antigen p53 (Homo sapiens), P04637 [V272M]; assay: Restoration of p53-V272M mutant transcriptional activity on PUMA promoter in human NCI-H1299 cells at 10 uM pretreated with 20 to 40 uM N-ethylmaleimide for 30 mins followed by compound addition for 10 mins and further incubation in fresh medium for 24 hrs by firefly/renilla based luciferase reporter assay; assay type: cell-based
[5] = test system: NB-4; assay: Induction of apoptosis in human NB4 cells assessed as viable cells at 9 uM preincubated for 1 hrs followed by replacement with fresh culture medium and measured after 24 hrs by Annexin V-FITC/7AAD staining based flow cytometry assay (reference value: 94%); assay type: functional; settings: read-out: Activity
[6] = molecular target: T1, PML-RARalpha (Homo sapiens) (UniProt P10276+P29590); assay: Induction of PML/RARalpha degradation in human NB4 cells assessed as downregulation of FCGR1B mRNA expression incubated for 1 hrs followed by replacement with fresh culture medium for 6 hrs by RT-qPCR analysis; assay type: cell-based; settings: dose 0.3-3 µM
T1 sequence (P10276 whole entry, looked up): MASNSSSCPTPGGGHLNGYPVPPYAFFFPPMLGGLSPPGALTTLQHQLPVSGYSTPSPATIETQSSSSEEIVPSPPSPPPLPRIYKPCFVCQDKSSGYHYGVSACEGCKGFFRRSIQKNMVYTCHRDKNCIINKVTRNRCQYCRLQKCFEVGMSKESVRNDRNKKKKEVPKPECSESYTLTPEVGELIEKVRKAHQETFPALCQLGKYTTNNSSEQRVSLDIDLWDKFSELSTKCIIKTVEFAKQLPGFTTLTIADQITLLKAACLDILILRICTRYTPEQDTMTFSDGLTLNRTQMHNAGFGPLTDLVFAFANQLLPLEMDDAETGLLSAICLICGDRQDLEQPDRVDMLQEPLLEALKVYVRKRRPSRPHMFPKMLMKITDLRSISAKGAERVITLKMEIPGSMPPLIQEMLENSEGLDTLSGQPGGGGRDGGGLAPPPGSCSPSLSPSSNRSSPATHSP
T1 sequence (P29590 whole entry, looked up): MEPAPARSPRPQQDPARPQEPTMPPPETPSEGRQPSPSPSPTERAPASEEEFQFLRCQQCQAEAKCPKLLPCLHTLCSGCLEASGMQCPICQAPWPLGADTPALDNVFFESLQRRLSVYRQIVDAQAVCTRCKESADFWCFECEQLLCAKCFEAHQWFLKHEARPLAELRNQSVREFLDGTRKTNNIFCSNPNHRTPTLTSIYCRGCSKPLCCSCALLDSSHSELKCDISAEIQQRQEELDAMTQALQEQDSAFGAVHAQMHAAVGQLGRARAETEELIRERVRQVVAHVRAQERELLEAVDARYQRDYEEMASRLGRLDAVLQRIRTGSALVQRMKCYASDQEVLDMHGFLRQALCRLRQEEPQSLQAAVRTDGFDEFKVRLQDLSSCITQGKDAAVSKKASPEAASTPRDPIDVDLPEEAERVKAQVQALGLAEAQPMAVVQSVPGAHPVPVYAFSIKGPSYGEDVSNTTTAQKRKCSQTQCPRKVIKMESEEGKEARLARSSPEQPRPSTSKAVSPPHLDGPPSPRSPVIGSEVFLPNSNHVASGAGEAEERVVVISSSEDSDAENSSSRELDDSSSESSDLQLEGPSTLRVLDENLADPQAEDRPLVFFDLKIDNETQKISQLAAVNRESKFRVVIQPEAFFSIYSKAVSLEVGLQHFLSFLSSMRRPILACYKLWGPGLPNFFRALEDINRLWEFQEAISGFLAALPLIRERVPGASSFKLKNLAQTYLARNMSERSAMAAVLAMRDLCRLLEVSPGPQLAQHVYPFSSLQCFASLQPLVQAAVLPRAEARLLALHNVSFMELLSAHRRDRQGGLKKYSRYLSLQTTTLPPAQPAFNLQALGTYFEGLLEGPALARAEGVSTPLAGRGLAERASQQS

[7] = Drug uptake in HFL1 cells at 10 uM measured after 10 mins by ICP-MS analysis; assay type: ADME, cell-based; settings: human, hfl1, 10 min
[8] = test system: U-937; assay: Induction of extrinsic apoptosis in human U-937 cells overexpressing p53-V272M mutant assessed as upregulation of DR5 gene expression by RT-qPCR analysis; assay type: functional, cell-based
[9] = molecular target: T1, PML-RARalpha (Homo sapiens); assay: Induction of PML/RARalpha degradation in HEK293T cells at 3 uM incubated for 1 hrs followed by replacement with fresh culture medium and measured after 16 hrs by immunofluorescence analysis; assay type: cell-based
[10] = Clearance in mouse assessed as hepatic blood flow; assay type: ADME, tissue-based
[11] = molecular target: T1, PML-RARalpha (Homo sapiens); assay: Induction of PML/RARalpha degradation in human NB4 cells assessed as residual protein level at 9 uM incubated for 1 hrs followed by replacement with fresh culture medium and measured after 16 hrs by Western blot analysis (reference value: 1); assay type: cell-based
[12] = test system: HL-60; assay: Inhibition of colony formation in human HL-60 cells harboring p53-V272M mutant at 0.2 to 3.2 uM pretreated for 1 hr followed by culturing in fresh medium and measured on day 18 by crystal violet staining based assay; assay type: functional, cell-based; settings: dose 0.2-3.2 µM
[13] = Plasma stability in mouse assessed as half life at […] measured upto 120 mins by LC-MS analysis; assay type: ADME, cell-free
[14] = Plasma stability in human assessed as half life at […] measured upto 120 mins by LC-MS analysis; assay type: ADME, cell-free
[15] = molecular target: T1, PML-RARalpha (Homo sapiens); assay: Induction of PML/RARalpha degradation in human NB4 cells assessed as downregulation of MPO mRNA expression incubated for 1 hrs followed by replacement with fresh culture medium for 6 hrs by RT-qPCR analysis; assay type: cell-based; settings: dose 0.3-3 µM
[16] = test system: Cellular tumor antigen p53 (Homo sapiens), P04637 [V272M]; assay: Rescue of p53-V272M mutant transcriptional activity on PUMA promoter in human NCI-H1299 cells at 0.3 to 10 uM pretreated for 10 mins to1 hr followed by replacement with fresh culture media and measured after 24 hrs by firefly/renilla based luciferase reporter assay; assay type: cell-based; settings: filed as activator, dose 0.3-10 µM, time 10-60 min
[17] = test system: Cellular tumor antigen p53 (Homo sapiens), P04637 [V272M]; assay: Restoration of p53-V272M mutant transcriptional activity on PUMA promoter in human NCI-H1299 cells at 2.5 to 10 uM pretreated with methyl-beta-cyclodextrin for 30 mins followed by compound addition for 10 mins and further incubation in fresh medium for 24 hrs by firefly/renilla based luciferase reporter assay; assay type: cell-based; settings: dose 2.5-10 µM
[18] = test system: Cellular tumor antigen p53 (Homo sapiens), P04637 [V272M]; assay: Restoration of p53-V272M mutant transcriptional activity on PUMA promoter in human NCI-H1299 cells at 2.5 to 10 uM pretreated with chlorpromazine for 30 mins followed by compound addition for 10 mins and further incubation in fresh medium for 24 hrs by firefly/renilla based luciferase reporter assay; assay type: cell-based; settings: dose 2.5-10 µM
[19] = Drug uptake in human HPDE6c7 cells at 10 uM measured after 10 mins by ICP-MS analysis; assay type: ADME, cell-based; settings: hpde6c7, 10 min
[20] = test system: U-937; assay: Upregulation of PUMA mRNA expression in human U-937 cells overexpressing p53-V272M mutant pretreated for 1 hr followed by culturing in fresh medium for 4 hrs by RT-qPCR analysis; assay type: functional, cell-based
[21] = molecular target: T1, PML-RARalpha (Homo sapiens); assay: Induction of PML/RARalpha degradation in human NB4 cells assessed as residual protein level at 0.3 uM incubated for 1 hrs followed by replacement with fresh culture medium and measured after 16 hrs by Western blot analysis (reference value: 1); assay type: cell-based
[22] = molecular target: T1, PML-RARalpha (Homo sapiens); assay: Induction of PML/RARalpha degradation in human NB4 cells assessed as residual protein level at 3 uM incubated for 1 hrs followed by replacement with fresh culture medium and measured after 16 hrs by Western blot analysis (reference value: 1); assay type: cell-based
[23] = test system: U-937; assay: Upregulation of p21 protein expression in human U-937 cells overexpressing p53-V272M mutant at 0.1 to 0.5 uM pretreated for 1 hr followed by culturing in fresh medium for 16 hrs by Western blot analysis; assay type: functional, cell-based; settings: dose 0.1-0.5 µM
[24] = test system: NCI-H1299; assay: Upregulation of p21 protein expression in human NCI-H1299 cells overexpressing p53-V272M mutant pretreated for 1 hr followed by culturing in fresh medium for 16 hrs by Western blot analysis; assay type: functional, cell-based
[25] = test system: NB-4; assay: Induction of apoptosis in human NB4 cells assessed as necrotic cells at 27 uM preincubated for 1 hrs followed by replacement with fresh culture medium and measured after 24 hrs by Annexin V-FITC/7AAD staining based flow cytometry assay (reference value: 0.18%); assay type: functional
[26] = test system: NB-4; assay: Induction of granulocytic differentiation in human NB4 cells assessed as CD11b positive cells at 3 uM incubated for 1 hrs followed by replacement with fresh culture medium for 48 hrs by flow cytometry analysis relative to control; assay type: functional
[27] = test system: Cellular tumor antigen p53 (Homo sapiens), P04637 [V272M]; assay: Rescue of p53-V272M mutant transcriptional activity on PUMA promoter in human NCI-H1299 cells assessed as fold change in transcriptional activity at 10 uM pretreated for 10 mins to1 hr followed by replacement with fresh culture media and measured after 24 hrs by firefly/renilla based luciferase reporter assay; assay type: cell-based; settings: filed as activator, time 10-60 min
[28] = test system: U-937; assay: Induction of cell cycle arrest in human U-937 cells overexpressing p53-V272M mutant assessed as upregulation of GADD45A gene expression by RT-qPCR analysis; assay type: functional, cell-based
[29] = test system: U-937; assay: Antitumor activity against GFP-tagged human U-937 cells harboring p53 V272M mutant xenografted in M-NSG mouse assessed as delay in spleen swelling at 25 mg/kg, ip administered for 9 days starting from 7 days post inoculation and measured on day 9 by FACS analysis; assay type: functional, organism-based; settings: time 9.0 day

Structure (SMILES): CC(=O)OC[C@H]1O[C@@H](S[As]2SCCS2)[C@H](OC(C)=O)[C@@H](OC(C)=O)[C@@H]1OC(C)=O
- Activity [1]: 6.71%
- viability at 3 µM [2]: 91.1%
- Activity [3]: inactive
- Activity [4]: inactive
- viability at 9 µM [5]: 85.6%
- Activity [6]: Dose-Dependent Effect
- Drug uptake [7]: Active
- Activity [8]: Active
- Activity [9]: Active
- QH [10]: 90 mL/min/kg
- Activity [11]: 0.02
- inhibition [12]: Active
- half-life [13]: 13.4 min
- half-life [14]: 16.1 min
- Activity [15]: Dose-Dependent Effect
- Activity [16]: Active
- Activity [17]: inactive
- Activity [18]: inactive
- Drug uptake [19]: Active
- Activity [20]: Active
- Activity [21]: 0.42
- Activity [22]: 0.18
- Activity [23]: Active
- Activity [24]: Active
- Activity [25]: 1.3%
- Activity [26]: 32.9%
- fold change (FC) [27]: 112
- Activity [28]: Active
- Activity [29]: Active
